# Measurements as given in patent publication EP2110134A1, “Cocoa extract compounds and methods for making and using the same” (MARS, INCORPORATED, priority 1996, dated 1997).
# Key:
# [1] = Rancimat oxidative stability test; conditions: 100°C, 20 cc/min air
# Experimental: The procedures described in Examples 1, 2 and 3 were used to prepare cocoa extracts which were manipulated further to produce two fractions from gel permeation chromatography. These two fractions are actually combined fractions A through C, and D and E (See Figure 1) whose antioxidant properties were compared against the synthetic antioxidants BHA and BHT.
# Peanut Oil was pressed from unroasted peanuts after the skins were removed. 50µL of methanol solubilized antioxidant was added to each sample to aid in dispersion of the antioxidant. A control sample was prepared with 50µL of methanol containing no antioxidant.
# The samples were evaluated in duplicate, for oxidative stability using the Rancimat stability test at 100°C and 20 cc/min of air. Experimental parameters were chosen to match those used with the Active Oxygen Method (AOM) or Swift Stability Test (Van Oosten et al., 1981). Results are reported in Table 8 as hours required to reach a peroxide level of 100 meq. Table 7: Concentrations of Antioxidants
# Helicobacter pylori = assay: Disk diffusion bioassay; type: cell-based; conditions: control disk, 80ug, read-out: H. pylori Inhibition
# Experimental: (§1) A study was conducted to evaluate the antimicrobial activity of procyanidin oligomers against Helicobacter pylori and Staphylococcus aureus. Pentamer enriched material was prepared as described in Example 13, Method A and analyzed as described in Example 14, Method C, where 89% was pentamer, and 11% was higher oligomers (n is 6 to 12). Purified pentamer (96.3%) was prepared as described in Example 14, Method D.
# (§2) Helicobacter pylori and Staphylococcus aureus were obtained from the American Type Culture Collection (ATCC). For H. pylori, the vial was rehydrated with 0.5 mL Trypticase Soy broth and the suspension transferred to a slant of fresh TSA containing 5% defibrinated sheep blood. The slant was incubated at 37°C for 3 to 5 days under microaerophilic conditions in anaerobic jars (5 to 10% carbon dioxide; CampyPakPlus, BBL). When good growth was established in the pool of broth at the bottom of the slant, the broth was used to inoculate additional slants of TSA with sheep blood. Because viability decreased with continued subculturing, the broth harvested from the slants was pooled and stored at -80°C. Cultures for assay were used directly from the frozen vials. […]
# (§3) A cell suspension of each culture was prepared (H. pylori, 10^8 to 10^9 cfu/mL; S. aureus 10^6 to 10^7 cfu/mL) and 0.5 mL spread onto TSA plates with 5% sheep blood. […] Zones of inhibition were measured following outgrowth. […]
# Staphylococcus aureus = assay: Disk diffusion bioassay; type: cell-based; conditions: read-out: S. aureus Inhibition
# Experimental: as §1, §2, §3
# [2] = tested on: Human umbilical vein endothelial cells (HUVEC); assay: NO production by HUVEC, Griess reaction; type: cell-based
# Experimental: Human umbilical vein endothelial cells (HUVEC) were obtained from Clonetics and cultures were carried out according to the manufacturer's specifications. HUVEC cells were seeded at 5,000 cells/cm^2 in 12-well plates (Falcon). After the third passage under the same conditions, they were allowed to reach confluence. The supernatant was renewed with fresh medium containing defined concentrations of bradykinin (25,50 and 100nM) or cocoa procyanidin fractions A-E (100µg/mL) as described in example 31. The culture was continued for 24 hr. and the cell free supernatants were collected and stored frozen prior to assessment of NO content as described below. In selected experiments, the NO synthase (NOS) antagonist, Nω-nitro-L-arginine methyl ester (L-NAME, 10µM) was added to assess the involvement of NOS in the observed NO production.
# HUVEC NO production was estimated by measuring nitrite concentration in the culture supernatant by the Griess reaction. Griess reagent was 1% sulfanilamide, 0.1% N-(1-naphthyl)-ethylenediamine dihydrochloride. Briefly, 50µL aliquots were removed from the various supernatants in quadruplicate and incubated with 150µL of the Griess reagent. The absorbency at 540 nm was determined in a multiscan (Labsystems Multiskans MCC/340) apparatus. Sodium nitrite was used at defined concentrations to establish standard curves. […]
molecule,measurement,setting,value
"COc1ccc(O)c(C(C)(C)C)c1 [BHA, Butylated Hydroxyanisole]",hours required to reach a peroxide level of 100 meq,"[1]; 20 ppm nominal (actual levels in Table 7), control 10.5 ± 0.7",13.5 ± 2.1 h
same,hours required to reach a peroxide level of 100 meq,[1]; 100 ppm nominal (actual levels in Table 7),14.0 ± 1.4 h
"Cc1ncc([N+](=O)[O-])n1CCO [Metronidazole standard, metronidazole]",zone of inhibition at 80 µg/disc,Helicobacter pylori,11 mm
"CN[C@H](CC(C)C)C(=O)N[C@H]1C(=O)N[C@@H](CC(N)=O)C(=O)N[C@H]2C(=O)N[C@H]3C(=O)N[C@H](C(=O)N[C@H](C(=O)O)c4cc(O)cc(O)c4-c4cc3ccc4O)[C@H](O)c3ccc(c(Cl)c3)Oc3cc2cc(c3O[C@@H]2O[C@H](CO)[C@@H](O)[C@H](O)[C@H]2O[C@H]2C[C@](C)(N)[C@H](O)[C@H](C)O2)Oc2ccc(cc2Cl)[C@H]1O [Vancomycin standard, vancomycin]",zone of inhibition at 30 µg/disc,Staphylococcus aureus,15 mm
"bradykinin (RPPGFSPFR; Bradykinin; UniProt P01042 381-389, looked up)",NO production by HUVEC,"[2]; 25, 50 and 100nM, 24 hr",dose dependent release of NO
same,NO release in the presence of L-NAME,[2]; L-NAME 10µM,completely inhibited
